From DBAASP
In brackets after ≈: the same amount, converted by molar mass. Blank lines part the entries; values can stand above or below the compound they belong to.

Experiments:
Assay in all cases: ≥ marks a high value that may be exact or a test limit, other limits are often not marked, values filed in µg/mL are converted to µM
[1] = test system: Pseudomonas aeruginosa CGMCC 1.860
[2] = test system: Enterococcus faecalis CGMCC 1.595
[3] = test system: Klebsiella pneumoniae subsp. pneumoniae CGMCC 1.176
Bacillus cereus AS1.126 = test system: Bacillus cereus AS1.126
[4] = test system: Lactococcus lactis AS1.1690
[5] = test system: Klebsiella aerogenes CGMCC 1.876
[6] = test system: Enterobacter cloacae CGMCC 1.58
Escherichia coli AS1.349 = test system: Escherichia coli AS1.349
[7] = test system: Enterococcus faecium CGMCC 1.2334
[8] = test system: Staphylococcus aureus AS1.72
[9] = test system: Klebsiella pneumoniae MTCC 7407
[10] = test system: Acinetobacter baumannii MTCC 9829
[11] = test system: Proteus vulgaris MTCC 1771
[12] = test system: Enterococcus faecalis MTCC 439
[13] = test system: Alcaligenes faecalis MTCC 1937
[14] = test system: Citrobacter koseri MTCC 1657
[15] = test system: Salmonella enterica subsp. enterica serovar Typhimurium ATCC 14028
[16] = test system: Alkalihalobacillus alcalophilus MTCC 860
[17] = test system: Pluralibacter gergoviae MTCC 3826
[18] = test system: Salmonella enterica MTCC 9844
[19] = test system: Staphylococcus haemolyticus MTCC 3383
[20] = test system: Escherichia coli K12 MG1655
[21] = test system: Klebsiella oxytoca MTCC 2275
[22] = test system: Shigella boydii MTCC 11947
[23] = test system: Shigella flexneri MTCC 1457
[24] = test system: Haemophilus influenzae MTCC 621
[25] = test system: Proteus mirabilis MTCC 3158
[26] = test system: Stenotrophomonas maltophilia MTCC 1890
[27] = test system: Corynebacterium glutamicum MTCC 2679
[28] = test system: Pseudomonas aeruginosa MTCC 3542
[29] = test system: Klebsiella aerogenes MTCC 111
[30] = test system: Citrobacter freundii MTCC 1658
[31] = test system: Vibrio cholerae MTCC 3904
[32] = test system: Staphylococcus aureus MTCC 3160
[33] = test system: Bordetella bronchiseptica MTCC 6837
Escherichia coli W3110 = test system: Escherichia coli W3110
[34] = test system: Klebsiella pneumoniae ATCC BAA-1705
[35] = test system: Streptococcus mutans UA159
Enterococcus faecalis = test system: Enterococcus faecalis
[36] = test system: Pseudomonas aeruginosa PAK
Staphylococcus aureus = test system: Staphylococcus aureus
[37] = test system: Streptococcus sanguinis NY101
Salmonella sp. = test system: Salmonella sp.

MIC (Escherichia coli W3110): 1 µM (≈ 2.32 µg/mL) | MIC [34]: 8 µM (≈ 18.6 µg/mL)
Structure (SMILES): CC[C@H](C)[C@H](N)C(=O)N[C@@H](Cc1c[nH]c2ccccc12)C(=O)N[C@@H](Cc1c[nH]c2ccccc12)C(=O)N[C@@H](C)C(=O)N[C@@H](CCCCN)C(=O)N[C@@H](Cc1c[nH]c2ccccc12)C(=O)NCC(=O)N[C@@H](CC(C)C)C(=O)N[C@@H](CCCCN)C(=O)N[C@@H](CC(C)C)C(=O)N[C@@H](CC(C)C)C(=O)N[C@@H](CCCN=C(N)N)C(=O)N[C@@H](Cc1ccc(O)cc1)C(=O)N[C@@H](CCCN=C(N)N)C(=O)N[C@@H](CCCN=C(N)N)C(=O)N[C@H](C(=O)N[C@@H](Cc1ccc(O)cc1)C(=O)O)[C@@H](C)CC [IWWAKWGLKLLRYRRIY]

MIC [35]: 8.13 µM (≈ 7.99 µg/mL) | MIC (Enterococcus faecalis): 16.3 µM (≈ 16 µg/mL) | MIC [36]: 16.3 µM (≈ 16 µg/mL) | MIC (Staphylococcus aureus): 32.5 µM (≈ 32 µg/mL) | MIC [37]: 16.3 µM (≈ 16 µg/mL) | MIC (Escherichia coli W3110): 8.13 µM (≈ 7.99 µg/mL)
Structure (SMILES): CC(C)C[C@H](NC(=O)[C@H](Cc1cnc[nH]1)NC(=O)[C@H](Cc1ccccc1)NC(=O)[C@H](Cc1cnc[nH]1)NC(=O)[C@@H](N)Cc1ccccc1)C(=O)N[C@@H](Cc1cnc[nH]1)C(=O)N[C@@H](Cc1ccccc1)C(N)=O [FHFHLHF]

MIC (Salmonella sp.): ≥ 256 µM
Structure (SMILES): CC(C)C[C@H](NC(=O)[C@H](CCCCN)NC(=O)[C@H](CC(C)C)NC(=O)[C@@H](N)CC(C)C)C(=O)N[C@@H](Cc1ccccc1)C(=O)N[C@@H](Cc1ccccc1)C(=O)N1CCC[C@H]1C(=O)N[C@@H](Cc1ccccc1)C(=O)N[C@@H](CC(C)C)C(=O)N[C@@H](CCC(=O)O)C(=O)N[C@H](C(=O)NCC(=O)N[C@@H](CCC(=O)O)C(=O)O)[C@@H](C)O [LLKLFFPFLETGE]

Continued, compound first:

Structure (SMILES): CC[C@H](C)[C@H](N)C(=O)N[C@@H](CCCCN)C(=O)N[C@@H](CCCCN)C(=O)N[C@H](C(=O)N[C@@H](CC(C)C)C(=O)N[C@@H](CO)C(=O)N[C@@H](CCCCN)C(=O)N[C@H](C(=O)N[C@@H](CCCCN)C(=O)N[C@@H](CCCCN)C(=O)N[C@@H](CC(C)C)C(=O)N[C@@H](CC(C)C)C(N)=O)[C@@H](C)CC)[C@@H](C)CC [IKKILSKIKKLL]
MIC [1]: 3.12 µM (≈ 4.44 µg/mL) | MIC [2]: 6.25 µM (≈ 8.9 µg/mL) | MIC [3]: 6.25 µM (≈ 8.9 µg/mL) | MIC (Bacillus cereus AS1.126): 3.12 µM (≈ 4.44 µg/mL) | MIC [4]: 3.12 µM (≈ 4.44 µg/mL) | MIC [5]: 6.25 µM (≈ 8.9 µg/mL) | MIC [6]: 6.25 µM (≈ 8.9 µg/mL) | MIC (Escherichia coli AS1.349): 3.12 µM (≈ 4.44 µg/mL) | MIC [7]: 6.25 µM (≈ 8.9 µg/mL) | MIC [8]: 3.12 µM (≈ 4.44 µg/mL)

Structure (SMILES): CC[C@H](C)[C@H](NC(=O)[C@H](C)N)C(=O)N[C@H](C(=O)N[C@@H](CCC(=O)O)C(=O)N[C@@H](CCC(N)=O)C(=O)N[C@@H](CC(C)C)C(=O)N[C@@H](CCCN=C(N)N)C(=O)N[C@@H](CCCCN)C(=O)N[C@@H](CCCN=C(N)N)C(=O)N[C@@H](CS)C(=O)O)C(C)C [AIVEQLRKRC]
MIC [9]: ≥ 105 µM | MIC [10]: ≥ 105 µM | MIC [11]: ≥ 105 µM | MIC [12]: ≥ 105 µM | MIC [13]: ≥ 105 µM | MIC [14]: ≥ 105 µM | MIC [15]: > 105 µM | MIC [16]: ≥ 105 µM | MIC [17]: ≥ 105 µM | MIC [18]: ≥ 105 µM | MIC [19]: ≥ 105 µM | MIC [20]: ≥ 105 µM | MIC [21]: ≥ 105 µM | MIC [22]: ≥ 105 µM | MIC [23]: ≥ 105 µM | MIC [24]: ≥ 105 µM | MIC [25]: ≥ 105 µM | MIC [26]: ≥ 105 µM | MIC [27]: ≥ 105 µM | MIC [28]: ≥ 105 µM | MIC [29]: ≥ 105 µM | MIC [30]: ≥ 105 µM | MIC [31]: ≥ 105 µM | MIC [32]: ≥ 105 µM | MIC [33]: ≥ 105 µM

Structure (SMILES): CC[C@H](C)[C@H](NC(=O)[C@H](C)NC(=O)[C@H](CC(C)C)NC(=O)[C@H](C)NC(=O)[C@H](CC(C)C)NC(=O)[C@H](CCCCN)NC(=O)[C@H](CC(C)C)NC(=O)[C@H](C)NC(=O)[C@H](CO)NC(=O)[C@H](C)NC(=O)[C@H](CC(C)C)NC(=O)[C@H](CC(C)C)NC(=O)[C@H](CCCCN)NC(=O)[C@H](CCCCN)NC(=O)[C@H](C)NC(=O)[C@@H](NC(=O)[C@@H](N)CCC(=O)O)C(C)C)C(=O)O [EVAKKLLASALKLALAI]
MIC [9]: ≥ 73.1 µM | MIC [10]: ≥ 73.1 µM | MIC [11]: ≥ 73.1 µM | MIC [12]: ≥ 73.1 µM | MIC [13]: ≥ 73.1 µM | MIC [14]: ≥ 73.1 µM | MIC [15]: > 73.1 µM | MIC [16]: ≥ 73.1 µM | MIC [17]: ≥ 73.1 µM | MIC [18]: ≥ 73.1 µM | MIC [19]: ≥ 73.1 µM | MIC [20]: ≥ 73.1 µM | MIC [21]: ≥ 73.1 µM | MIC [22]: ≥ 73.1 µM | MIC [23]: ≥ 73.1 µM | MIC [24]: ≥ 36.5 µM | MIC [25]: ≥ 73.1 µM | MIC [26]: ≥ 73.1 µM | MIC [27]: 18.3 µM (≈ 32 µg/mL) | MIC [28]: ≥ 73.1 µM | MIC [29]: ≥ 73.1 µM | MIC [30]: ≥ 73.1 µM | MIC [31]: ≥ 73.1 µM | MIC [32]: ≥ 73.1 µM | MIC [33]: 9.13 µM (≈ 16 µg/mL)

Structure (SMILES): CC(C)C[C@H](NC(=O)CNC(=O)[C@H](CC(C)C)NC(=O)[C@H](CCCCN)NC(=O)[C@H](C)NC(=O)[C@H](Cc1c[nH]c2ccccc12)NC(=O)[C@H](Cc1c[nH]c2ccccc12)NC(=O)[C@@H](N)Cc1c[nH]c2ccccc12)C(=O)N[C@@H](CCCCN)C(=O)N[C@@H](CC(C)C)C(=O)N[C@@H](CC(C)C)C(=O)N[C@@H](CCCN=C(N)N)C(=O)N[C@@H](Cc1ccc(O)cc1)C(=O)N[C@@H](CCCN=C(N)N)C(=O)N[C@@H](CCCN=C(N)N)C(=O)N[C@@H](Cc1c[nH]c2ccccc12)C(=O)N[C@@H](Cc1ccc(O)cc1)C(=O)O [WWWAKLGLKLLRYRRWY]
MIC (Escherichia coli W3110): 4 µM (≈ 9.58 µg/mL) | MIC [34]: 8 µM (≈ 19.2 µg/mL)
